Experimental data published in patent US8742082B2, “Compositions and methods for influencing satiety, lipid metabolism, and fat utilization” (Nestec S.A., priority 2008, dated 2014).

Tests used:
[1] = Chronic oral OEA in high fat diet: plasma triglycerides and cholesterol; assay type: in vivo; settings: C3H mice, 4 weeks; for Plasma triglycerides, change: P<0.05
Text: The physiological and biochemical effects of chronic oral OEA administration were investigated. Mice were chronically fed with OEA, provided as a supplement during 4 weeks, to study the effect on body weight gain and cumulative food intake, among other parameters.
Animals, diet and experimental design. Adult male C3H mice purchased at 8 weeks of age were individually housed and maintained ad libitum on different diets and water for 2 weeks. Seven mice were allocated in 3 groups by randomization by weight, and fed with a high fat diet (lipids represented 50% of daily energy) during 2 weeks. The composition of the high fat diet per kg was: 284.5 g of corn starch, 89.5 g of saccharose, 250 g of casein, 50 g of cellulose, 10 g of a mix of vitamins (V1001), 35 g of a mix of minerals (S10026) and 281 g of canola oil (UPAE, Jouy en Josas, France). Then, OEA was added to the diets at different levels to provide 0, 10, or 100 mg OEA/kg body weight. The mice were kept on each respective diet for 4 weeks. During the nutritional intervention, daily food intake was monitored and the mice were weighed 3 times a week.
Sampling. At the end of the experimental period, mice were sacrificed by blood drawing after anesthesia with isoflurane. Plasma was obtained by centrifugation (1,000 g for 10 min at 4° C.). Mesenteric, epididymal, inguinal and peritoneal adipose depots, as well as liver, stomach, small intestine mucosa and gastrocnemian muscle were excised and frozen into liquid nitrogen. Plasma and organ samples were kept at −80° C. until analysis. Triglycerides, glucose, total cholesterol and HDL cholesterol were directly measured on plasma samples collected during the sacrifice by enzymatic procedures, using a Beckman Coulter Systems SYNCHRON LX 20 (Beckman Coulter, Fullerton, USA) (oxidase method, Beckman Coulter for glucose, GPO method, Beckman Coulter for TG, oxidase and esterase method, Beckman Coulter for cholesterol). HDL were isolated by specific solubilization, using a precipitation isolation kit (Beckman Coulter, Fullerton, USA).
Statistical analysis. Results were determined as mean±standard error of the mean (SEM). Statistical analysis of physiological parameters was performed by one-way ANOVA on Statview software (SAS institute, Cary, USA). Statistical significance was set up at the P<0.05 level.

[2] = molecular target: G-protein coupled cannabinoid receptor GPR119 (Homo sapiens, UniProt Q8TDV5); settings: cited from earlier work
G-protein coupled cannabinoid receptor GPR119, sequence (Q8TDV5 whole entry): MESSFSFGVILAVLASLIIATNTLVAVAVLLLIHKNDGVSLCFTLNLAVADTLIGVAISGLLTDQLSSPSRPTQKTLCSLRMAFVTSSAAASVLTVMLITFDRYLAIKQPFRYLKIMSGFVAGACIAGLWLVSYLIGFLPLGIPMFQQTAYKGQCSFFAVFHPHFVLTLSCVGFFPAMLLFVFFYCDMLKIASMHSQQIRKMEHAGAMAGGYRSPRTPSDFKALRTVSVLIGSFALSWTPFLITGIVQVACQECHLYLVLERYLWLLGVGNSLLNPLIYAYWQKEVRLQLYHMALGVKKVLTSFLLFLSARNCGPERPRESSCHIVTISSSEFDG

[3] = system: Uncoupling protein 2 (UCP2); test: Real-time PCR gene expression in peripheral tissues: UCP2; assay type: in vivo; settings: muscle; C57bl6j mice, high fat diet, 100 mg/kg/body weight in diet, 5 weeks
Protocol: (§1) The expression of 45 genes was measured by real-time PCR in peripheral tissues to identify genes that were differentially expressed in response to oral administration of oleoylethanolamide (OEA) or a non-hydrolysable OEA analog (KDS 5104), which affect satiety, lipid metabolism, fat utilization, food intake, and body fat mass.
(§2) Animals, diet, and experimental design. Adult male C57bl6j mice purchased at 8 weeks of age were individually housed and maintained ad libitum on high fat diet and water for 2 weeks. Seven mice were randomly allocated in 3 groups and fed with a high fat diet (lipids represented 50% of daily energy) for 2 weeks. […]
(§3) RNA extraction and gene expression. […] The RNA concentration was determined on nanodrop from the absorbance at 260 nm. […] Real-time quantitative PCR (RT-qPCR) were performed on cDNA obtained as described above using a high through put system (Biomek 3000, Beckman & Coulter, Fullerton, USA) and a Lightcycler 480 (Roche/Hitachi, Basel, Switzerland) with SYBR Green Master mix+kit (Eurogentec, Philadelphia, USA). […] Values were expressed as ratio of RNA levels relative to control mice (diets with 0 mg of OEA/kg/body weight) using ΔΔ(Ct) (Livak K J & Schmittgen T D, 2001, Methods 25:402-8). Gene expression of the following genes was measured (abbreviation and GenBank Accession shown in parentheses). […]

[4] = system: Phosphoenolpyruvate carboxykinase (PEP CK); test: Real-time PCR gene expression in peripheral tissues: PepCK; assay type: in vivo; settings: liver; C57bl6j mice, high fat diet, 100 mg/kg/body weight in diet, 5 weeks
Protocol: as §1, §2, §3

[5] = system: Glucose transporter 4 (Glut 4); test: Real-time PCR gene expression in peripheral tissues: Glut 4; assay type: in vivo; settings: muscle; C57bl6j mice, high fat diet, 100 mg/kg/body weight in diet, 5 weeks
Protocol: as §1, §2, §3

CCCCCCCC/C=C\CCCCCCCC(=O)NCCO [OEA, N-oleoyl-ethanolamide]
Plasma triglycerides, change ([1]; 10 mg dose): −72% | plasma total cholesterol ([1]; 10 mg/kg): trend to decreased | Plasma triglycerides, change ([1]; 100 mg dose): −59% | plasma total cholesterol (decrease) ([1]; 100 mg/kg body weight): reached statistical significance | binding to GPR119 [2]: can also bind | UCP2 m, ratio of RNA levels relative to control mice [3]: 1.19 | PepCK l, ratio of RNA levels relative to control mice [4]: 1.02 | Glut 4 m, ratio of RNA levels relative to control mice [5]: 3.27
